Experimental data as given in patent US20250382298A1, “NITROGEN-CONTAINING COMPOUND AND USE THEREOF” (SUZHOU GENHOUSE BIO CO., LTD., priority 2022, published 2025).

Columns and labels:
[1] = system: BT-549 cells; assay: Detection of cell proliferation activity by CCK8 method (BT-549); format: cell-based; details: CCK8, 96 h
In short: (§1)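 Cells seeded at 1500/well (BT-549, 1640 medium) or 2000/well (HT-29, HCT-116, McCoy's 5A), treated next day with 9-point 1:5 dilutions from 10 μM final, triplicate, for 96 h. CCK8 read at 450 nm after 2 h at 37 °C; inhibition versus DMSO, IC50 by non-linear regression.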

[2] = system: HCT-116 cells; assay: Mitotic index analysis, pH3 expression in HCT-116 cells; format: cell-based; details: 24 h treatment
In short: (§2)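 HCT-116 or HT-29 cells treated 24 h with 9-point 3-fold dilutions from 10 μM, then fixed and immunostained for phospho-histone H3 with DRAQ5 counterstain. Near-infrared fluorescence read at 700/800 nm; pH3 expressed as % of DMSO control and EC50 fitted.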

[3] = system: OVCAR3 cells; assay: Detection of OVCAR3 cell proliferation activity by CTG method; format: cell-based; details: CellTiter-Glo, 7 days
Text: This assay can be used to examine the potency of compounds in inhibiting the proliferation of tumor cells (OVCAR3, HT-29, BT-549, HCT-116). A lower IC50 value indicates high potency of the compound as a KIF18A inhibitor in the following assay setup,
1640 medium; fetal bovine serum; penicillin/streptomycin antibiotics purchased from Wisent; CellTiter-Glo (chemiluminescence detection reagent for cell viability) reagent purchased from Promega; OVCAR3 cell line purchased from Nanjing Cobioer Biosciences Co., Ltd.; Nivo multimode microplate reader (PerkinElmer),
OVCAR3 cells were seeded into a white 96-well plate, with 80 μL of cell suspension containing 2000 OVCAR3 cells added to each well. The cell plate was incubated in a CO2 incubator overnight.
A test compound was 5-fold diluted to the 8th concentration (i.e., from 2 mM to […]) using a multichannel pipette, with duplicate wells set up. To an intermediate plate was added 78 μL of medium, and the serially diluted compound was transferred to the corresponding wells of the intermediate plate at 2 μL/well. The mixture was mixed well and then transferred to the cell plate at 20 μL/well. The concentration of the compound transferred to the cell plate ranged from 10 μM to 0.026 nM. The cell plate was incubated in a CO2 incubator for 7 days. Another cell plate was prepared and read for signal values on the day of compound addition, and these values were used as the maximum values (the Max value in the equation below) in data analysis. To this cell plate was added the chemiluminescence detection reagent for cell viability at 25 μL/well, and the luminescence signals were stabilized by incubation at room temperature for 10 min. Readings were taken using the multimode microplate reader.
To the cell plate was added the chemiluminescence detection reagent for cell viability at 25 μL/well, and the luminescence signals were stabilized by incubation at room temperature for 10 mm. Readings were taken using the multimode microplate reader, […]

[4] = system: HT-29 cells; assay: Mitotic index analysis, pH3 expression in HT-29 cells; format: cell-based, human; details: 24 h treatment
In short: as §2

[5] = system: OVCAR3 cells; assay: Detection of cell proliferation activity by CCK8 method (OVCAR3); format: cell-based
In short: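 OVCAR3 tumor cells in log-phase growth were trypsinized, counted and plated at 180 μL per well in 96-well plates, with PBS in the outer wells. The following day, compounds were added in 9 concentrations (1:5 dilutions starting at 10 μM final) in triplicate alongside DMSO controls. After 96 h, medium was swapped for 100 μL medium containing 10% CCK8. Plates were incubated 2 h at 37° C and read at 450 nm. Background-corrected inhibition relative to DMSO was fitted by non-linear regression in GraphPad Prism 7.0 to obtain IC50.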

[6] = biological target: KIF18A (Homo sapiens (Human), UniProt Q8NI77); assay: KIF18A enzymatic activity inhibition, ADP-Glo kit; format: biochemical; details: 4 nM KIF18A, 30 μM ATP
Experimental: In this experiment, an ADP-Glo kit was used to detect the inhibitory activity of the compounds against KIF18A. Each compound was prepared into a 10 mM stock solution with DMSO, which was then diluted at 1:5 to obtain 9 gradients with the initial final concentration set at 10 μM. Meanwhile, a control group and a blank group were also set up. The reaction buffer consisted of 15 mM Tris (pH 7.5), 10 mM MgCl2, and 0.01% Pluronic F-68. 4 nM KIF18A (1467) and the test compound were added to a 384-well plate and incubated at 37° C. for 20 mm. Then, 30 μM ATP was added to initiate the enzymatic reaction, and the plate was incubated at room temperature for 15 min. Finally, the ADP-Glo reagent was added to detect the luminescence intensity, where the luminescence intensity is directly proportional to the ADP content. Inhibition rate (%)=[…]. Sample signal is the value of the compound group, and DMSO signal is the value of the DMSO control group. Then, the inhibition rate at each concentration was calculated, and the IC50 was determined by fitting using the GraphPadPrism 7.0 software.

[7] = system: HCT-116 cells; assay: Detection of cell proliferation activity by CCK8 method (HCT-116); format: cell-based; details: CCK8, 96 h
In short: as §1

[8] = system: HT-29 cells; assay: Detection of cell proliferation activity by CCK8 method (HT-29); format: cell-based, human; details: CCK8, 96 h
In short: as §1

[9] = Pharmacokinetic test in rats; format: in vivo; details: SD rats, PO @5mpk; for AUC / Cmax / half-life: rat, plasma, 5 mg/kg; for half-life: read-out: t½ (converted)
Experimental: In this example, the pharmacokinetic behavior of the compounds after intravenous injection (IV) and intragastric (PO) administration in SD rats was tested.
On the day of administration, rats were weighed for actual body weight and the administration volume was calculated. Each compound was tested in two groups with 3 rats in each group; one group was subjected to administration by single intravenous injection, and the other group was subjected to single intragastric administration. Whole blood samples were collected via the jugular vein at prescribed time points (0.25 h, 0.5 h, 1 h, 2 h, 4 h, 8 h, and 24 h after administration). After blood sample collection, the samples were immediately transferred to labeled commercial sample tubes containing K2-EDTA (0.85-1.15 mg), followed by centrifugation (3200×g, 4° C., 10 min) and plasma collection. The plasma was transferred to a pre-cooled centrifuge tube, frozen in dry ice, and then stored in an ultra-low temperature freezer at −60° C. or lower until the LC-MS/MS analysis.
Plasma concentrations were determined by the LC-MS/MS method. Plasma drug concentration data for the compounds were processed using a non-compartmental model in the WinNonlin Version 6.3 (Pharsight, Mountain View, CA) pharmacokinetic software. The relevant pharmacokinetic parameters were calculated by a linear-log trapezoidal method.

Sequence of KIF18A (Q8NI77 1-467): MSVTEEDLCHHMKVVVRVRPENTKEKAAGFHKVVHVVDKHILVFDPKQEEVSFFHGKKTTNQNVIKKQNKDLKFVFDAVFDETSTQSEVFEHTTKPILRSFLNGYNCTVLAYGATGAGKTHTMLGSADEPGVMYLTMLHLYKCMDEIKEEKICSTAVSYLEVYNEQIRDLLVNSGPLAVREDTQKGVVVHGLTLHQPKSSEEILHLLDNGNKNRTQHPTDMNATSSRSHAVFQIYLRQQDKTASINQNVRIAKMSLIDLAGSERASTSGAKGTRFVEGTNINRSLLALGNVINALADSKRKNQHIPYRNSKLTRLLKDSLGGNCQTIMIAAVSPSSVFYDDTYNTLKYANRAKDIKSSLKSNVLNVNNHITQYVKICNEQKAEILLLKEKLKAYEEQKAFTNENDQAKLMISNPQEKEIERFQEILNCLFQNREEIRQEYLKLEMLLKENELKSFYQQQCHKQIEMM

IC50 [6] [nM]	IC50 ([1]; Homo sapiens) [nM]	EC50 ([2]; Homo sapiens) [nM]	IC50 ([3]; Homo sapiens, OVCAR-3, 168 h) [nM]	EC50 ([4]; Homo sapiens) [nM]	IC50 ([5]; Homo sapiens, OVCAR-3, CCK8, 96 h) [nM]	IC50 ([7]; Homo sapiens) [nM]	IC50 ([8]; Homo sapiens) [nM]	F [9] [%]	AUC [9] [µM·h]	Cmax [9] [nM]	half-life [9] [h]	SMILES	IC50 [1] [nM]	EC50 [2] [nM]	IC50 [3] [nM]	EC50 [4] [nM]	IC50 ([5]; CCK8, 96 h) [nM]	IC50 [7] [nM]	IC50 [8] [nM]
63.4	1040	> 10000	220	108	206	> 10000	335	–	–	–	–	O=C(Nc1cn2ccnc2c(N2CC3(CCC3)C2)n1)c1ccc(NS(=O)(=O)CCO)cc1N1CCC2(CC1)CC2 [Compound 29]	–	–	–	–	–	–	–
15.2	109	> 10000	36	139	–	> 10000	146	25	0.604	217	2.4	O=C(Nc1cn2ccnc2c(N2CCOCC2)n1)c1ccc(NS(=O)(=O)CCO)cc1N1CCC2(CC1)CC2 [Compound 11]	–	–	–	–	–	–	–
10.2	34	> 10000	15	51	–	> 10000	73	18.3	2.41	526	2.6	O=C(Nc1cn2ccnc2c(N2CCCCC2)n1)c1ccc(NS(=O)(=O)CCO)cc1N1CCC2(CC1)CC2 [Compound 12]	–	–	–	–	–	–	–

SMILES	IC50 [6] [nM]	IC50 ([1]; Homo sapiens) [nM]	EC50 ([2]; Homo sapiens) [nM]	IC50 ([3]; Homo sapiens, OVCAR-3, 168 h) [nM]	EC50 ([4]; Homo sapiens) [nM]	IC50 ([5]; Homo sapiens, OVCAR-3, CCK8, 96 h) [nM]	IC50 ([7]; Homo sapiens) [nM]	IC50 ([8]; Homo sapiens) [nM]	F [9] [%]	AUC [9] [µM·h]	Cmax [9] [nM]	half-life [9] [h]	IC50 [1] [nM]	EC50 [2] [nM]	IC50 [3] [nM]	EC50 [4] [nM]	IC50 ([5]; CCK8, 96 h) [nM]	IC50 [7] [nM]	IC50 [8] [nM]
O=C(Nc1cc2nn[nH]c2c(N2CCC(F)(F)CC2)n1)c1ccc(NS(=O)(=O)CCO)cc1N1CCC2(CC1)CC2 [Compound 28]	33.4	–	–	–	–	–	–	–	–	–	–	–	117	> 10000	27.4	77.8	23.4	> 10000	321
O=C(Nc1cn2cncc2c(N2CCC(F)(F)CC2)n1)c1ccc(NS(=O)(=O)CCO)cc1N1CCC2(CC1)CC2 [Compound 27]	23.1	–	–	–	–	–	–	–	–	–	–	–	81.9	> 10000	38.6	34.6	27.2	> 10000	141
